# Source: US6383762B1, “Methods of obtaining compounds that interact with a human serotonin (5-HT2) receptor” (Synaptic Pharmaceutical Corporation, priority 1989, dated 2002)
# Columns and labels:
# [1] = molecular target: T1, 5-HT2 receptor in rat cortical membranes (Rattus norvegicus, UniProt P14842); details: rat cortex; Hoyer et al. 1986; cited from earlier work
# T1 construct: rather than in rat cortical membranes; host or cells: rat cortical membranes
# [2] = molecular target: T2, 5-HT2 receptor in human cortical membranes (Homo sapiens, UniProt P28223); details: human cortex; footnote 1 Lyon et al. 1987, footnote 2 Hoyer et al. 1986; cited from earlier work
# T2 construct: the 5-HT2 receptor in human cortical membranes; host or cells: human cortical membranes
# T2 sequence (P28223 whole entry): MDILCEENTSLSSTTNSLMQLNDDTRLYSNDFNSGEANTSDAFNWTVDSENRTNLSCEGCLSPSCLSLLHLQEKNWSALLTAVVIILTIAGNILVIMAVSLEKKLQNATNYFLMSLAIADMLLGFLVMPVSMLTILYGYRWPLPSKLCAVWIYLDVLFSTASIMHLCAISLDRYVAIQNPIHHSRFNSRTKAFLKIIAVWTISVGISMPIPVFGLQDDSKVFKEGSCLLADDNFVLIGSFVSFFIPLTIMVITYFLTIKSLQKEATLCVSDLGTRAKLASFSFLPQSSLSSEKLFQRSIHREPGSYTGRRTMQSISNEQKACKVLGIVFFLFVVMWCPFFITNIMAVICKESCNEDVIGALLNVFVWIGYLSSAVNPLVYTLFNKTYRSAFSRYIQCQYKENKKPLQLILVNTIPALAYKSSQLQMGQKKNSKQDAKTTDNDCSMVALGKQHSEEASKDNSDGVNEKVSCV
# [3] = molecular target: T3, cloned human 5-HT2 receptor (Homo sapiens, UniProt P28223); experiment: Competition for 3H-Ketanserin binding, cloned human 5-HT2 receptor in stably transfected Ltk- cell membranes; details: cloned human 5-HT2 receptor expressed in Ltk- cells; 3H-Ketanserin radioligand
# T3 construct: Clone 6B contained the entire coding region for a 5-HT2 receptor; expressed in transfected cells
# T3 sequence (P28223 whole entry): as above
# Method: (§1) The total reaction volume was 0.25 ml.
# (§2) Subsequent to analysis in transiently transfected cells, the 5-HT2 clone was expressed as a stable transfectant in mouse Ltk^− cells. Further characterization was done on these cells as described above.
# Data were analyzed by computer-assisted analysis (Accufit Competition; Lundon Software; Chagrin Falls, Ohio).
# (§3) Full saturation analysis was performed on stable cell lines expressing the gene. […] The binding constants were evaluated by computer-assisted nonlinear regression using Accufit (Lundon Software, Chagrin Falls, Ohio). […] Further characterization was accomplished by performing competition experiments for a series of drugs. Analysis of the competition data was accomplished using the computer-assisted nonlinear regression program Accucomp.
# human 5-HT2 receptor [4] = molecular target: T4, human 5-HT2 receptor (Homo sapiens, UniProt P28223); experiment: Saturation analysis of 3H-Ketanserin binding to stably transfected Ltk- cells; design: Clone 6B contained the entire coding region for a 5-HT2 receptor; expressed in transfected cells
# T4 sequence (P28223 whole entry): as above
# Method: as §1, §2, §3
# human 5-HT2 receptor [5] = molecular target: T4, human 5-HT2 receptor; experiment: Radioligand binding to transiently transfected Cos-7 cell membranes; details: transiently transfected Cos-7 cells
# T1 sequence (P14842 whole entry): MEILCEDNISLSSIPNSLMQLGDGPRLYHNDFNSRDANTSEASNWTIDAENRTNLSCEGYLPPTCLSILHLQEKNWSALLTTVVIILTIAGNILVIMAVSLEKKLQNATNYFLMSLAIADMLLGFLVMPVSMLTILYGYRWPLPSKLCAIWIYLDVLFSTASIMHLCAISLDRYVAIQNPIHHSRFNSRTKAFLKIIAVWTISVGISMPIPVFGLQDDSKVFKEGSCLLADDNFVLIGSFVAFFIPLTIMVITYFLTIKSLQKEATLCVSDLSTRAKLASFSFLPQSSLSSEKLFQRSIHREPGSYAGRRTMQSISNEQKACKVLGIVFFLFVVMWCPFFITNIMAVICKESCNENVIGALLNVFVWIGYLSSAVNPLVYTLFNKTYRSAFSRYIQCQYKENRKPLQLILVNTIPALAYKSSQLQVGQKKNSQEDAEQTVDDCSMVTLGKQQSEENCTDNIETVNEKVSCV
Structure (SMILES),Ki [1],Ki [2],Ki [3],"Bmax (human 5-HT2 receptor [4]; FIG. 4 experiment, stably transfected Ltk- cells)",Bmax (human 5-HT2 receptor [4]; Ltk- cells transfected with pMO5-6B),binding affinity in words (human 5-HT2 receptor [5]),estimated site density (human 5-HT2 receptor [5])
NCCc1c[nH]c2ccc(C(N)=O)cc12 [5-CT],20000 nM,813 nM,3030 nM,–,–,–,–
CN1C[C@@H](NS(=O)(=O)N(C)C)C[C@@H]2c3cccc4c3c(cn4C)C[C@H]21 [MESULERGINE],–,158 nM,146 ± 5 nM,–,–,–,–
[3H]C([3H])(N1CCC(C(=O)c2ccc(F)cc2)CC1)C([3H])([3H])n1c(=O)[nH]c2ccccc2c1=O [^3H-Ketanserin],–,–,–,0.602 pmole/mg protein,0.602±0.07 pm/mg protein,high affinity,0.95-1.6 pm/mg protein
